Target: T1, TaTPI (Thermoplasma acidophilum, UniProt Q9HLB6)
T1 construct: gene tpiA; full length, 216 residues, C-terminal His6-tag (pET-28a(+)), expressed in E. coli Rosetta 2(DE3)pLysS; 24,671 Da monomer; homodimer
Assay: X-ray crystallography ([…] A)
Type: binding
Conditions: 20 mM G3P incubated with apo protein 4 h at 4 C; pH 8.5; active site (Lys9, His89, Glu137); substrate analogue

T1 sequence (Q9HLB6 whole entry): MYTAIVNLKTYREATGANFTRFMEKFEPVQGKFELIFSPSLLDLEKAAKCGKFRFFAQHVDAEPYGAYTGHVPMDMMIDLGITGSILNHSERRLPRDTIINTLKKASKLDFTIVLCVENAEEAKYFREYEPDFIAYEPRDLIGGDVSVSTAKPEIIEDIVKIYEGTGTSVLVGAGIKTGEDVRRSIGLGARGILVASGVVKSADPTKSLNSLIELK

O=P(O)(O)OC[C@H](O)CO [G3P, glycerol-3-phosphate]
X-ray crystallography (2.17 A): G3P is well positioned at the active site of TaTPI with functionally conserved residues
